Reference: ChEMBL document CHEMBL5500372, “Novel natural osthole-inspired amphiphiles as membrane targeting antibacterials against methicillin-resistant Staphylococcus aureus (MRSA)” (Eur J Med Chem, 2024)
Active and inactive are the calls of the source. The rule behind the calls is not given here.

Tests used:
[1] = system: Cell membrane; assay: Induction of cytoplasmic membrane depolarization in methicillin-resistant Staphylococcus aureus clinical isolate 16 assessed as increase in fluorescence intensity measured after 35 mins by DiSC3-5 dye based fluorescence method; format: cell membranes
[2] = system: Cell membrane; assay: Induction of cytoplasmic membrane permeabilization in methicillin-resistant Staphylococcus aureus clinical isolate 16 assessed as increase in fluorescence intensity measured after 35 mins by SYTOX green dye based fluorescence analysis
[3] = system: Staphylococcus aureus; assay: Antibacterial activity against Staphylococcus aureus ATCC 29213 at 128 ug/ml measured after 20 passages by CLSI micro broth dilution method; format: functional, organism-based; details: dose 128.0 µg/ml
[4] = Selectivity index, ratio of HC50 for hemolytic activity in sheep erythrocyte assessed as hemolysis to MIC for antibacterial activity against Staphylococcus aureus ATCC 29213; format: toxicity; details: sheep erythrocytes, read-out: Selectivity Index
[5] = system: Staphylococcus aureus; assay: Antibacterial activity against methicillin-resistant Staphylococcus aureus clinical isolate 23 measured after 18 hrs by CLSI based broth microdilution method; format: functional
[6] = system: Staphylococcus aureus; assay: Antibacterial activity against methicillin-resistant Staphylococcus aureus clinical isolate 14 measured after 18 hrs by CLSI based broth microdilution method; format: functional
[7] = system: Staphylococcus aureus; assay: Antibacterial activity against methicillin-resistant Staphylococcus aureus clinical isolate 13 measured after 18 hrs by CLSI based broth microdilution method; format: functional
[8] = system: Staphylococcus aureus; assay: Antibacterial activity against methicillin-resistant Staphylococcus aureus clinical isolate 21 measured after 18 hrs by CLSI based broth microdilution method; format: functional
[9] = system: Escherichia coli; assay: Antibacterial activity against Escherichia coli ATCC 25922 measured after 18 hrs by CLSI based broth microdilution method; format: functional
[10] = system: Staphylococcus aureus; assay: Antibacterial activity against methicillin-resistant Staphylococcus aureus clinical isolate 12 measured after 18 hrs by CLSI based broth microdilution method; format: functional
[11] = system: Staphylococcus aureus; assay: Antibacterial activity against methicillin-resistant Staphylococcus aureus clinical isolate 17 measured after 18 hrs by CLSI based broth microdilution method; format: functional
[12] = system: Staphylococcus aureus; assay: Antibacterial activity against methicillin-resistant Staphylococcus aureus clinical isolate 16 measured after 18 hrs by CLSI based broth microdilution method; format: functional
[13] = system: Staphylococcus aureus; assay: Antibacterial activity against methicillin-resistant Staphylococcus aureus clinical isolate 20 measured after 18 hrs by CLSI based broth microdilution method; format: functional
[14] = system: Staphylococcus aureus; assay: Antibacterial activity against Staphylococcus aureus ATCC 29213 measured after 18 hrs by CLSI based broth microdilution method; format: functional
[15] = system: Staphylococcus aureus; assay: Antibacterial activity against methicillin-resistant Staphylococcus aureus clinical isolate 11 measured after 18 hrs by CLSI based broth microdilution method; format: functional
[16] = Hemolytic activity in sheep erythrocyte assessed as hemolysis incubated for 1 hr by absorbance based analysis; format: toxicity, cell-based, Ovis aries; details: sheep erythrocytes
[17] = system: Staphylococcus aureus; assay: Antibacterial activity against methicillin-resistant Staphylococcus aureus clinical isolate 22 measured after 18 hrs by CLSI based broth microdilution method; format: functional

SMILES | Activity [1] | Activity [2] | Activity [3] | selectivity ratio [4] | MIC [5] [µg/mL] | MIC [6] [µg/mL] | MIC [7] [µg/mL] | MIC [8] [µg/mL] | MIC [9] [µg/mL] | MIC [10] [µg/mL] | MIC [11] [µg/mL] | MIC [12] [µg/mL] | MIC [13] [µg/mL] | MIC [14] [µg/mL] | MIC [15] [µg/mL] | HC50 at 1 h [16] [µg/mL] | MIC [17] [µg/mL]
CC[C@H](C)[C@H](NC(=O)CN)C(=O)NCC(=O)N[C@@H](C)C(=O)N[C@H](C(=O)N[C@@H](CC(C)C)C(=O)N[C@@H](CCCCN)C(=O)N[C@H](C(=O)N[C@@H](CC(C)C)C(=O)N[C@H](C(=O)N[C@H](C(=O)NCC(=O)N[C@@H](CC(C)C)C(=O)N1CCC[C@H]1C(=O)N[C@@H](C)C(=O)N[C@@H](CC(C)C)C(=O)N[C@H](C(=O)N[C@@H](CO)C(=O)N[C@@H](Cc1c[nH]c2ccccc12)C(=O)N[C@H](C(=O)N[C@@H](CCCCN)C(=O)N[C@@H](CCCNC(=N)N)C(=O)N[C@@H](CCCCN)C(=O)N[C@@H](CCCNC(=N)N)C(=O)N[C@@H](CCC(N)=O)C(=O)N[C@@H](CCC(N)=O)C(N)=O)[C@@H](C)CC)[C@@H](C)CC)[C@@H](C)O)[C@@H](C)O)C(C)C)C(C)C | Active | Active |  |  |  |  |  |  |  |  |  |  |  |  |  |  | 
CCn1cc(C(=O)O)c(=O)c2cc(F)c(N3CCNCC3)cc21 |  |  | Active |  |  |  |  |  |  |  |  |  |  |  |  |  | 
CCNC(=O)C[N+](C)(C)CCCCCOc1ccc2ccc(=O)oc2c1CC=C(C)C.[Br-] |  |  |  | > 20 | 32 | 32 | 64 | 64 | > 128 | 64 | 64 | 32 | 64 | 64 | 64 | > 1280 | 32
CCCCCNC(=O)C[N+](C)(C)CCCOc1ccc2ccc(=O)oc2c1CC=C(C)C.[Br-] |  |  |  | 75.3 | 8 | 16 | 16 | 8 | 128 | 16 | 16 | 8 | 8 | 16 | 16 | 1200 | 8
CCN(CC)C(=O)C[N+](C)(C)CCCCOc1ccc2ccc(=O)oc2c1CC=C(C)C.[Br-] |  |  |  | 19 | 64 | 64 | 128 | 64 | > 128 | 128 | 64 | 64 | 64 | 64 | 128 | 1220 | 64
CCCN(CCC)C(=O)C[N+](C)(C)CCCOc1ccc2ccc(=O)oc2c1CC=C(C)C.[Br-] |  |  |  | > 40 | 32 | 16 | 32 | 32 | 128 | 32 | 16 | 32 | 32 | 32 | 32 | > 1280 | 32
CCCNC(=O)C[N+](C)(C)CCCCOc1ccc2ccc(=O)oc2c1CC=C(C)C.[Br-] |  |  |  | > 20 | 64 | 32 | 64 | 64 | 128 | 64 | 64 | 32 | 64 | 64 | 64 | > 1280 | 64
CCCCNC(=O)C[N+](C)(C)CCCCCOc1ccc2ccc(=O)oc2c1CC=C(C)C.[Br-] |  |  |  | 99.8 | 8 | 8 | 8 | 8 | 128 | 16 | 8 | 8 | 8 | 8 | 8 | 798 | 8
CCCCCCNC(=O)C[N+](C)(C)CCCCOc1ccc2ccc(=O)oc2c1CC=C(C)C.[Br-] |  |  |  | > 320 | 2 | 4 | 4 | 4 | 64 | 8 | 4 | 2 | 4 | 4 | 4 | > 1280 | 4
CCCCCCNC(=O)C[N+](C)(C)CCCOc1ccc2ccc(=O)oc2c1CC=C(C)C.[Br-] |  |  |  | > 320 | 4 | 4 | 8 | 4 | 32 | 8 | 4 | 4 | 4 | 4 | 4 | > 1280 | 4
CCCN(CCC)C(=O)C[N+](C)(C)CCCCCOc1ccc2ccc(=O)oc2c1CC=C(C)C.[Br-] |  |  |  | 97.4 | 8 | 8 | 8 | 8 | 128 | 16 | 8 | 8 | 8 | 8 | 8 | 779 | 4
CC(C)=CCc1c(OCCCCC[N+](C)(C)CC(=O)N(C(C)C)C(C)C)ccc2ccc(=O)oc12.[Br-] |  |  |  | 184 | 4 | 4 | 8 | 4 | > 128 | 8 | 4 | 4 | 4 | 4 | 8 | 736 | 4
